According to patent US9937250B2, “Immunogenic tumor associated stromal cell antigen peptides and methods of their use” (University of Pittsburgh—Of the Commonwealth System of …, priority 2011, dated 2018):

Columns and labels:
[1] = test system: MC38 colon carcinoma; test: MC38 protection (prophylactic vaccination) model; type: in vivo, HHD mice; settings: for Anti-tumor efficacy in MC38 protection model: DC.IL12 pulsed with a pool of 1 or more peptides derived from the indicated TBVA, vaccination d-14, d-7; for Protection against HLA-A2neg MC38 tumor challenge: immunization days -14 and -7, tumor challenge day 0 (FIG. 9B)
Excerpt: FIGS. 9A-9B show a series of graphs illustrating induction of specific/protective CD8^+ T cells reactive against TASA as a consequence of DC/peptide-based vaccination. In FIG. 9A, HHD mice (five animals/cohort) were vaccinated twice (d-14, d-7) subcutaneously with PBS or with isologous DC.IL12 pulsed with PBS or synthetic peptides (Table 6) derived from the indicated TASA. In cases where more than 1 peptide was identified for a given target antigen, an equimolar pool of the indicated peptides (each 10 μM) was pulsed onto DC.IL12 and used for vaccination in the relevant cohort. One week after the second immunization, spleens were harvested and splenic CD8^+ T cells isolated using MACS-beads (Miltenyi). T cells were stimulated in vitro for 48 h using the HLA-A2^+ T2 cell line pulsed with relevant TASA vs. irrelevant HIV-nef190-198 ([…]; ref. 24) peptides. Cell-free supernatants were then recovered and IFN-γ levels by ELISA. Data are reported as mean+/−SD for triplicate ELISA determinations, and are representative of 3 independent experiments performed. *p<0.05 vs. HIV-nef control peptide responses. In FIG. 9B, HHD mice were vaccinated twice (days −14 and −7; right flank) subcutaneously with PBS or with isologous DC.IL12 pulsed with PBS or synthetic TASA peptides as indicated in FIG. 1A. In cases where more than 1 peptide is identified for a given target antigen, an equimolar pool of the indicated peptides (each 10 μM) was pulsed onto DC.IL12 and used for vaccination in the relevant cohort. One week after the booster vaccine (i.e. day zero), animals were challenged subcutaneously on their left flank with 2×10^6 MC38 colon carcinoma cells. Tumor growth was then monitored every 3-4 days through day 24. All data represent mean tumor area (in mm^2)+/−SD determined from 5 mice/cohort, and are representative of three independent experiments performed. *p<0.05 versus DC only on the indicated days.
Vaccine Experiments. For prophylactic experiments, HHD mice were immunized subcutaneously on the right flank with 100 μl PBS or PBS containing 10^6 syngenic DC.IL12 cells that had been untreated or pre-pulsed for 4 h at 37° C. with 10 μM synthetic peptide(s). Immunizations occurred on days −14 and −7, with mice subsequently receiving injections of MC38 (2×10^6) tumor cells in the left flank on d0. In all cases, treatment groups contained 5 mice per cohort. For analysis of tumor cellular composition in repeat experiments, MC38 tumors were isolated by surgical resection 10 days after tumor inoculation and prepared for fluorescence imaging, as described below. […] Mice were then untreated or treated with control, syngenic DC.IL12 or DC.IL12 (10^6 cells injected subcutaneously in the left flank on days 7 and 14) pulsed with synthetic TBVA peptides. In some assays, as indicated, in vivo antibody depletions (on days 6, 13 and 20 post-tumor inoculation to assess early involvement or on days 60 and 67 or 180 and 187 to assess late involvement) of protective CD4^+ T cells or CD8^+ T cells were performed and monitored as previously described (Zhao et al., Mol Ther., 19:805-814, 2011). In all cases, tumor size (area) was monitored every 3-4 days and is reported as mean+/−SD in mm^2.
The DLK1, EphA2, HBB, NG2, NRP1, NRP2, PDGFRβ, PSMA, RGS5, TEM1, VEGFR1 and VEGFR2 antigens were expressed in situ by blood vessel cells in the MC38 colon carcinoma TME (FIG. 14). Protection of HHD mice against a challenge with HLA-A2^neg MC38 tumor cells injected subcutaneously on day zero was assayed with immunization with TBVA-derived peptides on days −14 and −7. […]

[2] = test system: CD8+ T cells from HLA-A2+ normal donors or HLA-A2+ melanoma patients; test: In vitro sensitization of human CD8+ T cells with TASA peptide-pulsed autologous DC, IFN-γ ELISA against peptide-pulsed T2 cells; type: cell-based
Description: The indicated peptides were pulsed onto autologous DC and used to prime and boost CD8^+ T cells isolated from the peripheral blood of eight normal HLA-A2^+ donors or ten HLA-A2^+ patients with melanoma. Seven days after the primary in vitro sensitization (IVS) (melanoma patients) or a secondary IVS boost (normal donors), T cells were analyzed for their reactivity against HLA-A2^+ T2 cells pulsed with the relevant peptide vs. the negative control HIV-nef190-198 peptide. After 24 hours of co-culture, cell-free supernatants were analyzed for levels of secreted IFN-γ using a commercial ELISA. Data are reported in Bar and Whisker plots, with p-values provided for paired pre- versus post-IVS data from normal donors and patients. In addition, p<0.05 was detected for MEL-Post versus ND-Post for the following peptides: DLK1 (309), NG2 (770), NG2 (2238), PDGFRβ (891) and RGS5 (5).
In vitro assessment of human CD8^+ T cell responses against TASA- or TAA-derived peptides. Peripheral blood mononuclear cells (PBMC) were obtained by venipuncture or leukapheresis from HLA-A2^+ normal donors or HLA-A2^+ melanoma patients with written consent under IRB-approved protocols (Table 3). CD8^+ T cells were then isolated by MACS (Miltenyi Biotec, Auburn, Calif.) and either not stimulated or stimulated with autologous, TASA peptide-pulsed DC as previously described (Tatsumi et al., Cancer Res., 63:4481-4489, 2003). Normal donor T cells were stimulated with TASA peptide-pulsed DC twice on a weekly schedule, with responder T cells harvested for analysis of their specificity 5 days after the booster stimulation (i.e. day 12 of T cell-DC co-culture). Melanoma patient CD8^+ T cells were analyzed after a single round of stimulation with TASA peptide-pulsed, autologous DC (i.e. day 5 of T cell-DC co-culture) as indicated. For DC-based stimulations, DC were pulsed with an equimolar (1 μM each) pool of the TASA peptides (Table 4) for 4 h at 37° C. at 5% CO2 tension. These antigen-loaded DC were then used to stimulate autologous CD8^+ T cells at a T cell-to-DC ratio of 10:1 to generate a bulk population of responder T cells. T cells were maintained in IMDM media supplemented with 10% human AB serum, 100 U/ml penicillin, […], 10 mM L-glutamine and MEM non-essential amino acids (all reagents from Invitrogen, except human AB serum that was purchased from Sigma-Aldrich, St. Louis, Mo.). Responder CD8^+ T cells were analyzed for reactivity against control (HLA-A2^+) T2 cells or T2 cells pulsed with individual TASA or TAA peptides (1 μM for 4 h at 37° C.) at a CD8^+ T cell-to-T2 cell ratio of 5:1 for 24 h. Harvested cell-free supernatants were consequently assessed for hIFN-γ content using a specific ELISA (BD Biosciences, San Diego, Calif.) with a lower detection limit of 4.7 pg/ml.
CD8^+ T cells from HLA-A2^+ normal donors or HLA-A2^+ melanoma patients recognize TASA-derived peptides in vitro. To assess whether the TASA-derived peptides identified in the HHD tumor model were also capable of being recognized by human CD8^+ T cells, IVS was performed using T cells isolated from the peripheral blood of HLA-A2^+ donors or HLA-A2^+ patients with melanoma. DC were pulsed with peptides derived from a given TASA for 4 h at 37° C., then washed and used as stimulator cells for autologous CD8^+ T cells. In cases where more than one peptide existed for a given protein, DC were pulsed with an equimolar (10 μM) mixture of each peptide. Two rounds of IVS using TASA for normal donors and a single-round of IVS using TASA for melanoma patients was applied. HLA-A2^+ normal donors (FIG. 4; Tables 4, 5A and 5B) and melanoma patients (FIG. 4; Tables 4, 5A and 5B) were each capable of recognizing many of the TASA-derived peptides.

[3] = test system: MC38 tumor microenvironment; test: Fluorescence imaging of MC38 tumor sections after prophylactic vaccination; type: in vivo, HHD mice; settings: day 14 tumors; p<0.05 vs. untreated or DC.IL12/no peptide
Excerpt: Day 14 MC38 tumors were harvested from HHD mice that had been vaccinated as outlined in FIG. 9B with the indicated peptides (or control PBS or DC.IL12 alone=No peptide). In FIG. 10A, six-micron tissue sections were co-stained with anti-CD8 (green) and anti-NG2 (red) antibodies and imaged by fluorescence microscopy. Blue signal=nuclear counterstain using 4′,6-diamidino-2-phenylindole (DAPI). FIG. 10B provides a summary of the mean+/−SD number of CD8^+ cells per high-power field (HPF) in MC38 tumors isolated from control or vaccinated mice as depicted in FIG. 10A. In FIG. 10C, tissue sections were co-stained with anti-CD31 (green) and anti-NG2 (red) antibodies and imaged by fluorescence microscopy. Blue signal=nuclear counterstain using DAPI. In FIG. 10D, the mean+/−SD number of CD31^+ vessels per HPF of MC38 tumors in control or vaccinated mice are summarized Representative data is depicted from 1 of 3 independent experiments performed. *p<0.05 versus DC only or untreated control mice.
Fluorescence Imaging of Tumor Sections. Tumor tissue samples were prepared and 6 micron sections prepared as previously reported (Komita et al., Cancer Res., 68:8076-8084, 2008). The following Abs were used: (for T cell analyses), rabbit anti-mouse NG2 (Millipore, Bedford, Mass.) and alexa488-conjugated anti-CD4 or -CD8β antibodies or matching isotype controls (all from BD-Biosciences); (for vascular analyses), rat anti-mouse CD31 (BD-Biosciences) and rabbit anti-mouse NG2 (Millipore) Abs; (for TBVA), rat anti-mouse CD31 (BD-Biosciences) and guinea pig anti-mouse NG2 Abs, along with anti-TBVA as described in Example 1. Imaging was performed using an Olympus Fluoview 500 Confocal microscope (Olympus America, Center Valley, Pa.).
Protective vaccines incorporating TBVA peptides promote enhanced infiltration of the TME by CD8^+ T cells in association with an inhibition of tumor vascularity. MC38 tumor lesions from all cohorts of animals with evidence of disease on day 14 (post-tumor inoculation) were isolated and immunofluorescence microscopy on tumor sections was performed. […] In marked contrast, CD4^+ T cell infiltration in the TME was sparse and the data were indistinguishable when comparing control vs. vaccinated mice (FIG. 17). […] Correlative analyses indicated an association between the anti-tumor efficacy of vaccines and their ability to promote CD8^+ T cell infiltration and reduced vascularity in the TME (FIG. 16).

Row | Substance | Anti-tumor efficacy in MC38 protection model [1] | Protection against HLA-A2neg MC38 tumor challenge [1] | Specific CD8+ T cell Production of IFN-γ in Response to TASA ([2]; donor Mel4, melanoma patient) | Specific CD8+ T cell Production of IFN-γ in Response to TASA ([2]; donor Mel6, melanoma patient) | Specific CD8+ T cell Production of IFN-γ in Response to TASA ([2]; donor Mel7, melanoma patient) | Specific CD8+ T cell Production of IFN-γ in Response to TASA ([2]; donor ND5, normal donor) | Suppression in CD31+ vessel counts in the MC38 TME [3]
1 | VEGFR1: VEGFR1-derived peptide 770-778 pulsed onto DC or DC.IL12 (TLFWLLLTL; listed as Homo sapiens) | +/- (+/-, p < 0.05 versus DC only for 2 consecutive time points) | minimal protection | + (Human responses were designated as + if T cell reactivity against T2 cells presenting the indicated peptide (IFN-γ ELISA) was >30 pg/ml and more than 2 fold higher than reactivity versus T2 cells pulsed with the negative control HIV-nef190-198 peptide) | + (Human responses were designated as + if T cell reactivity against T2 cells presenting the indicated peptide (IFN-γ ELISA) was >30 pg/ml and more than 2 fold higher than reactivity versus T2 cells pulsed with the negative control HIV-nef190-198 peptide) | + (Human responses were designated as + if T cell reactivity against T2 cells presenting the indicated peptide (IFN-γ ELISA) was >30 pg/ml and more than 2 fold higher than reactivity versus T2 cells pulsed with the negative control HIV-nef190-198 peptide) | + (Human responses were designated as + if T cell reactivity against T2 cells presenting the indicated peptide (IFN-γ ELISA) was >30 pg/ml and more than 2 fold higher than reactivity versus T2 cells pulsed with the negative control HIV-nef190-198 peptide) | –
2 | VEGFR2: VEGFR2-derived peptide 773-781 pulsed onto DC or DC.IL12 (VIAMFFWLL; listed as Homo sapiens) | +/- (+/-, p < 0.05 versus DC only for 2 consecutive time points) | minimal protection | – | – | – | – | somewhat less pronounced effects
